Test results reported in ChEMBL document CHEMBL3603741, “Structure activity relationship of pyridoxazinone substituted RHS analogs of oxabicyclooctane-linked 1,5-naphthyridinyl novel bacterial topoisomerase inhibitors as broad-spectrum antibacterial agents (Part-6)” (Bioorg Med Chem Lett, 2015).
Values after ≈ are worked out from the molar mass of the structure shown.

How the values were obtained:
[1] = test system: Acinetobacter baumannii; test: Antibacterial activity against Acinetobacter baumannii IID876; assay type: functional
[2] = test system: Escherichia coli; test: Antibacterial activity against Escherichia coli ATCC 25922; assay type: functional
[3] = test system: Pseudomonas aeruginosa; test: Antibacterial activity against Pseudomonas aeruginosa PAO1; assay type: functional
[4] = test system: Enterococcus faecium; test: Antibacterial activity against VanA-resistant Enterococcus faecium; assay type: functional
[5] = test system: Streptococcus pneumoniae; test: Antibacterial activity against Streptococcus pneumoniae IID553; assay type: functional
[6] = test system: Staphylococcus aureus; test: Antibacterial activity against Staphylococcus aureus Smith; assay type: functional
[7] = biological target: T1, Voltage-gated inwardly rectifying potassium channel KCNH2 (Homo sapiens, UniProt Q12809); test: Inhibition of MK499 binding to human ERG
T1 sequence (Q12809 whole entry): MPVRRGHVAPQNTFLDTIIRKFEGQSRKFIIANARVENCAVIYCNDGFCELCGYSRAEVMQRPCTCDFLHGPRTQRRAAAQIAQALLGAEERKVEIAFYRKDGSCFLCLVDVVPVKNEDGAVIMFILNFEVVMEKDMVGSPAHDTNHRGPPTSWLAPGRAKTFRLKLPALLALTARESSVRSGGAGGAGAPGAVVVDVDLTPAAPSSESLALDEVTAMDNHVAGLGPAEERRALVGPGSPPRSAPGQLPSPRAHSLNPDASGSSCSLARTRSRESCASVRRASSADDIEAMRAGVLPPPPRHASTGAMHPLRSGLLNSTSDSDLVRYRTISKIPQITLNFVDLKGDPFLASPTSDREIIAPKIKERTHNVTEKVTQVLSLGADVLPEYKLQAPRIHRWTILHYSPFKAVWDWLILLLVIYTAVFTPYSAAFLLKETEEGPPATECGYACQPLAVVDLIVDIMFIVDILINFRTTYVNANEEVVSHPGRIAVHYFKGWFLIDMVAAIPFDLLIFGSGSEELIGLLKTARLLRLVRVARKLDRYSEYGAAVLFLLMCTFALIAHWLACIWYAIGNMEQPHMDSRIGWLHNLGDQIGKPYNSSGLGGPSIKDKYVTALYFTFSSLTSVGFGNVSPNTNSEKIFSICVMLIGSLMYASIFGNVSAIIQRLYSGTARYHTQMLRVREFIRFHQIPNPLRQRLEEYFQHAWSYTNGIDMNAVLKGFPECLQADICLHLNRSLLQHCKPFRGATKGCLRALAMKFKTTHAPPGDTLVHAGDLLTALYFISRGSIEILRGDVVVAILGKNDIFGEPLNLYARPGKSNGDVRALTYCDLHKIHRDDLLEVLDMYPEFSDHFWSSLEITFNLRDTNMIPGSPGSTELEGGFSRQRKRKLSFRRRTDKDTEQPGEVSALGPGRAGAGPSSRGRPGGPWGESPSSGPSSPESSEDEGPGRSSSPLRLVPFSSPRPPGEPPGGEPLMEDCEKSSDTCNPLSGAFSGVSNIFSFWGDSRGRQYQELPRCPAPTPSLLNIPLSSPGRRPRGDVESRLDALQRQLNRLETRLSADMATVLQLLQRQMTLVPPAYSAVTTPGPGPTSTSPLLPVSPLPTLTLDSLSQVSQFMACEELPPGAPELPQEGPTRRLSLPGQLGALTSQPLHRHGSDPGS

[8] = test system: Staphylococcus aureus; test: Ratio of MIC for quinolone-resistant Staphylococcus aureus MS5935 to MIC for […]; assay type: functional
[9] = test system: Staphylococcus aureus; test: Antibacterial activity against Staphylococcus aureus Smith infected in iv dosed ICR mouse assessed as increase in survival rate administered at 1 hr post infection measured on day 7; assay type: functional
[10] = test system: Staphylococcus aureus; test: Antibacterial activity against Staphylococcus aureus Smith infected in po dosed ICR mouse assessed as increase in survival rate administered at 1 hr post infection measured on day 7; assay type: functional
[11] = biological target: T1, Voltage-gated inwardly rectifying potassium channel KCNH2; test: Inhibition of human ERG expressed in CHO cells measured for 5 mins by automated patch clamp assay
[12] = Acinetobacter baumannii, IID876, read-out: MIC
[13] = Escherichia coli, ATCC 25922, read-out: MIC
[14] = Pseudomonas aeruginosa, PAO1, read-out: MIC
[15] = Enterococcus faecium, read-out: MIC
[16] = Streptococcus pneumoniae, IID553, read-out: MIC
[17] = Staphylococcus aureus, Smith, read-out: MIC

SMILES | MIC [1, 12] | MIC [2, 13] | MIC [3, 14] | MIC [4, 15] | MIC [5, 16] | MIC [6, 17] | IC50 [7] | Ratio [8] | MIC [1] | MIC [2] | MIC [3] | MIC [4] | MIC [6] | ED50 [9] | ED50 [10] | IC50 [11] | MIC [5]
COc1ccc2ncc(F)c(CCC34CCC(NCc5nc6c(c(C)c5C(C)C)OCC(=O)N6)(CC3)CO4)c2n1 | 32 µg/mL (≈ 58.2 µM) | 32 µg/mL (≈ 58.2 µM) | 32 µg/mL (≈ 58.2 µM) | 32 µg/mL (≈ 58.2 µM) | 32 µg/mL (≈ 58.2 µM) | 32 µg/mL (≈ 58.2 µM) | – | – | – | – | – | – | – | – | – | – | –
COc1ccc2ncc(F)c(CCC34CCC(NCc5nc6c(c(C)c5F)OCC(=O)N6)(CC3)CO4)c2n1 | 32 µg/mL (≈ 60.9 µM) | 32 µg/mL (≈ 60.9 µM) | 32 µg/mL (≈ 60.9 µM) | 32 µg/mL (≈ 60.9 µM) | 4 µg/mL (≈ 7.61 µM) | 0.5 µg/mL (≈ 0.951 µM) | – | – | – | – | – | – | – | – | – | – | –
COC(=O)N(Cc1ccc2c(n1)NC(=O)CO2)C12CCC(CCc3c(F)cnc4ccc(OC)nc34)(CC1)OC2 | 64 µg/mL (≈ 116 µM) | 64 µg/mL (≈ 116 µM) | 64 µg/mL (≈ 116 µM) | 64 µg/mL (≈ 116 µM) | 64 µg/mL (≈ 116 µM) | 16 µg/mL (≈ 29 µM) | – | – | – | – | – | – | – | – | – | – | –
COc1ccc2ncc(F)c(CCC34CCC(N(C)Cc5ccc6c(n5)NC(=O)CO6)(CC3)CO4)c2n1 | 8 µg/mL (≈ 15.8 µM) | 16 µg/mL (≈ 31.5 µM) | 32 µg/mL (≈ 63 µM) | 8 µg/mL (≈ 15.8 µM) | 2 µg/mL (≈ 3.94 µM) | 0.13 µg/mL (≈ 0.256 µM) | 1.2 µM | <4 | – | – | – | – | – | – | – | – | –
COc1ccc2ncc(F)c(CCC34CCC(NC(=O)c5ccc6c(n5)NC(=O)CO6)(CC3)CO4)c2n1 | 8 µg/mL (≈ 15.8 µM) | 8 µg/mL (≈ 15.8 µM) | 8 µg/mL (≈ 15.8 µM) | 1 µg/mL (≈ 1.97 µM) | 0.5 µg/mL (≈ 0.985 µM) | 0.02 µg/mL (≈ 0.0394 µM) | – | – | – | – | – | – | – | – | – | – | –
CCOC(=O)C1(C)Oc2ccc(CNC34CCC(CCc5c(F)cnc6ccc(OC)nc56)(CC3)OC4)nc2NC1=O (single isomer, unassigned; (-)) | – | – | – | – | 8 µg/mL (≈ 13.8 µM) | – | – | – | 8 µg/mL (≈ 13.8 µM) | 8 µg/mL (≈ 13.8 µM) | 8 µg/mL (≈ 13.8 µM) | 8 µg/mL (≈ 13.8 µM) | 8 µg/mL (≈ 13.8 µM) | – | – | – | –
COc1ccc2ncc(F)c(CCC34CCC(NCc5ccc6c(n5)NC(=O)CO6)(CC3)CO4)c2n1 | 0.5 µg/mL (≈ 1.01 µM) | 1 µg/mL (≈ 2.03 µM) | 4 µg/mL (≈ 8.1 µM) | 0.5 µg/mL (≈ 1.01 µM) | 0.13 µg/mL (≈ 0.263 µM) | 0.02 µg/mL (≈ 0.0405 µM) | – | – | – | – | – | – | – | – | – | – | –
COc1ccc2ncc(F)c(CCC34CCC(NCc5nc6c(cc5C)OCC(=O)N6)(CC3)CO4)c2n1 | 0.5 µg/mL (≈ 0.985 µM) | 2 µg/mL (≈ 3.94 µM) | 8 µg/mL (≈ 15.8 µM) | 1 µg/mL (≈ 1.97 µM) | 1 µg/mL (≈ 1.97 µM) | 0.06 µg/mL (≈ 0.118 µM) | – | – | – | – | – | – | – | – | – | – | –
COc1ccc2ncc(F)c(C[C@H](O)C3CCC(NCc4nc5c(cc4OC)OCC(=O)N5)CO3)c2n1 (stereo not given in full) | 16 µg/mL (≈ 31.2 µM) | 16 µg/mL (≈ 31.2 µM) | 16 µg/mL (≈ 31.2 µM) | 16 µg/mL (≈ 31.2 µM) | 16 µg/mL (≈ 31.2 µM) | 16 µg/mL (≈ 31.2 µM) | – | <4 | – | – | – | – | – | – | – | – | –
COc1ccc2ncc(F)c(CCC34CCC(NCc5ccc6c(n5)NC(=O)C(C)O6)(CC3)CO4)c2n1 (single isomer, unassigned; (+)) | 2 µg/mL (≈ 3.94 µM) | 2 µg/mL (≈ 3.94 µM) | 2 µg/mL (≈ 3.94 µM) | 2 µg/mL (≈ 3.94 µM) | 0.25 µg/mL (≈ 0.493 µM) | – | – | – | – | – | – | – | 0.25 µg/mL (≈ 0.493 µM) | – | – | – | –
COc1ccc2ncc(F)c(CCC34CCC(NCc5nc6c(cc5Cl)OCC(=O)N6)(CC3)CO4)c2n1 | 1 µg/mL (≈ 1.89 µM) | 2 µg/mL (≈ 3.79 µM) | 2 µg/mL (≈ 3.79 µM) | 1 µg/mL (≈ 1.89 µM) | 0.25 µg/mL (≈ 0.473 µM) | 0.02 µg/mL (≈ 0.0379 µM) | – | – | – | – | – | – | – | – | – | – | –
CCc1c(CNC23CCC(CCc4c(F)cnc5ccc(OC)nc45)(CC2)OC3)nc2c(c1C)OCC(=O)N2 | 32 µg/mL (≈ 59.7 µM) | 32 µg/mL (≈ 59.7 µM) | 32 µg/mL (≈ 59.7 µM) | 32 µg/mL (≈ 59.7 µM) | 32 µg/mL (≈ 59.7 µM) | 2 µg/mL (≈ 3.73 µM) | – | – | – | – | – | – | – | – | – | – | –
COc1ccc2ncc(F)c(CCC34CCC(NCc5nc6c(c(C)c5C)OCC(=O)N6)(CC3)CO4)c2n1 | 4 µg/mL (≈ 7.67 µM) | 2 µg/mL (≈ 3.83 µM) | 16 µg/mL (≈ 30.7 µM) | 2 µg/mL (≈ 3.83 µM) | 8 µg/mL (≈ 15.3 µM) | 1.06 µg/mL (≈ 2.03 µM) | – | – | – | – | – | – | – | – | – | – | –
COc1ccc2ncc(F)c(CCC34CCC(NCc5ccc6c(n5)NC(=O)C(C)(C)O6)(CC3)CO4)c2n1 | 2 µg/mL (≈ 3.83 µM) | 2 µg/mL (≈ 3.83 µM) | 2 µg/mL (≈ 3.83 µM) | 2 µg/mL (≈ 3.83 µM) | 1 µg/mL (≈ 1.92 µM) | 0.25 µg/mL (≈ 0.479 µM) | 3 µM | <4 | – | – | – | – | – | – | – | – | –
COc1ccc2ncc(F)c(CCC34CCC(NCc5nc6c(cc5F)OCC(=O)N6)(CC3)CO4)c2n1 | 0.5 µg/mL (≈ 0.977 µM) | 2 µg/mL (≈ 3.91 µM) | 8 µg/mL (≈ 15.6 µM) | 1 µg/mL (≈ 1.95 µM) | 0.13 µg/mL (≈ 0.254 µM) | 0.02 µg/mL (≈ 0.0391 µM) | – | – | – | – | – | – | – | 2.5 mg/kg | 3.9 mg/kg | – | –
COc1ccc2ncc(F)c(CCC34CCC(N(C)C(=O)c5ccc6c(n5)NC(=O)CO6)(CC3)CO4)c2n1 | 4 µg/mL (≈ 7.67 µM) | 4 µg/mL (≈ 7.67 µM) | 4 µg/mL (≈ 7.67 µM) | 4 µg/mL (≈ 7.67 µM) | 4 µg/mL (≈ 7.67 µM) | 0.03 µg/mL (≈ 0.0575 µM) | > 60 µM | <4 | – | – | – | – | – | – | – | > 30 µM | –
COc1ccc2ncc(F)c(C[C@H](O)C3CCC(NCc4nc5c(cc4F)OCC(=O)N5)CO3)c2n1 (stereo not given in full) | 1 µg/mL (≈ 1.99 µM) | 4 µg/mL (≈ 7.98 µM) | 16 µg/mL (≈ 31.9 µM) | 2 µg/mL (≈ 3.99 µM) | 0.25 µg/mL (≈ 0.499 µM) | 0.03 µg/mL (≈ 0.0598 µM) | – | – | – | – | – | – | – | 3.2 mg/kg | 6.7 mg/kg | – | –
COc1ccc2ncc(F)c(CCC34CCC(NCc5ccc6c(n5)NC(=O)C(C)O6)(CC3)CO4)c2n1 (single isomer, unassigned; (-)) | – | – | – | – | – | – | – | – | 1 µg/mL (≈ 1.97 µM) | 2 µg/mL (≈ 3.94 µM) | 2 µg/mL (≈ 3.94 µM) | 2 µg/mL (≈ 3.94 µM) | 0.06 µg/mL (≈ 0.118 µM) | 14 mg/kg | 28 mg/kg | – | 0.25 µg/mL (≈ 0.493 µM)
COc1ccc2ncc(F)c(CCC34CCC(NCc5cc(C)c6c(n5)NC(=O)CO6)(CC3)CO4)c2n1 | 4 µg/mL (≈ 7.88 µM) | 8 µg/mL (≈ 15.8 µM) | 32 µg/mL (≈ 63 µM) | 8 µg/mL (≈ 15.8 µM) | 4 µg/mL (≈ 7.88 µM) | 0.5 µg/mL (≈ 0.985 µM) | – | – | – | – | – | – | – | – | – | – | –
COc1ccc2ncc(F)c(C[C@H](O)C3CCC(NCc4ccc5c(n4)NC(=O)CO5)CO3)c2n1 (stereo not given in full) | 2 µg/mL (≈ 4.14 µM) | 16 µg/mL (≈ 33.1 µM) | 32 µg/mL (≈ 66.2 µM) | 2 µg/mL (≈ 4.14 µM) | 2 µg/mL (≈ 4.14 µM) | 0.03 µg/mL (≈ 0.062 µM) | – | <4 | – | – | – | – | – | – | – | – | –
COc1ccc2ncc(F)c(CCC34CCC(NCc5nc6c(cc5OC)OCC(=O)N6)(CC3)CO4)c2n1 | 8 µg/mL (≈ 15.3 µM) | 8 µg/mL (≈ 15.3 µM) | 8 µg/mL (≈ 15.3 µM) | 8 µg/mL (≈ 15.3 µM) | 8 µg/mL (≈ 15.3 µM) | 4 µg/mL (≈ 7.64 µM) | – | <4 | – | – | – | – | – | – | – | – | –
CCOC(=O)C1(C)Oc2ccc(CNC34CCC(CCc5c(F)cnc6ccc(OC)nc56)(CC3)OC4)nc2NC1=O (single isomer, unassigned; (+)) | 16 µg/mL (≈ 27.6 µM) | 16 µg/mL (≈ 27.6 µM) | 16 µg/mL (≈ 27.6 µM) | 16 µg/mL (≈ 27.6 µM) | – | 16 µg/mL (≈ 27.6 µM) | – | – | – | – | – | – | – | – | – | – | 16 µg/mL (≈ 27.6 µM)
COc1ccc2ncc(F)c(CCC34CCC(NCc5ccc6c(n5)N(C)C(=O)CO6)(CC3)CO4)c2n1 | 16 µg/mL (≈ 31.5 µM) | 16 µg/mL (≈ 31.5 µM) | 16 µg/mL (≈ 31.5 µM) | 16 µg/mL (≈ 31.5 µM) | 2 µg/mL (≈ 3.94 µM) | 2 µg/mL (≈ 3.94 µM) | – | – | – | – | – | – | – | – | – | – | –
C=Cc1c(CNC23CCC(CCc4c(F)cnc5ccc(OC)nc45)(CC2)OC3)nc2c(c1C)OCC(=O)N2 | 32 µg/mL (≈ 60 µM) | 32 µg/mL (≈ 60 µM) | 32 µg/mL (≈ 60 µM) | 32 µg/mL (≈ 60 µM) | 8 µg/mL (≈ 15 µM) | 0.25 µg/mL (≈ 0.469 µM) | – | – | – | – | – | – | – | – | – | – | –
